We go through 16 compounds from ChEMBL document CHEMBL1806431, “Imidazo[1,2-a]pyridin-3-amines as potential HIV-1 non-nucleoside reverse transcriptase inhibitors” (Bioorg Med Chem, 2011).

SMILES strings stand for the structures.

In data set [1] the target is Human immunodeficiency virus type 1 reverse transcriptase (Human immunodeficiency virus 1, UniProt Q72547). Put plainly: Inhibition of HIV1 reverse transcriptase assessed as residual enzyme activity at 50 uM after 1 hr by ELISA. For orientation: An ELISA detects its analyte on a solid surface through an enzyme-linked reagent.
Data set [2] deals with Human immunodeficiency virus 1. Put plainly: microbe, parasite or virus in culture. Format: functional, organism-based. The conditions noted are these: Human immunodeficiency virus 1, 3B, MAGI-CCR5, 48 h.
The nature of data set [3]: Cytotoxicity against human MAGI-CCR5 cells after 48 hrs by MTS cell viability assay. On the technique in general: Formazan colour is commonly taken as a measure of viable cells.
Data set [4] can be described thus: Selectivity index, ratio of CC50 for MAGI-CCR5 cells to IC50 for HIV13B infected in human MAGI-CCR5 cells. Type of data set: functional.
Data set [5] can be described thus: Permeability of the compound at 100 uM after 5 hrs by PAMPA. In general terms: In PAMPA a lipid-coated filter parts donor from acceptor wells.

As for `Clc1ccccc1-c1nc2cccc(Br)n2c1NC1CCCCC1`, the IC50 (usually the concentration that inhibits the measured activity by half) in data set [1] amounted to 4.62 µM; in data set [2], 3.15 µM. In data set [3], the CC50 (in general, the concentration at which the toxic effect on the cells reaches its halfway point) at 48 h was more than 200 µM. For the same compound, the “Ratio CC50/IC50” value in data set [4] was 64.

For `Clc1ccccc1-c1nc2ccc3ccccc3n2c1NC1CCCCC1`, the values for the IC50 in data set [1] and in data set [2] were 7.52 µM and 0.6 µM, respectively. Further, the CC50 at 48 h in data set [3] came out at 146 µM. The “Ratio CC50/IC50” value in data set [4] was determined as 243. In addition, the permeability result in data set [5] is given as “permeable”.

For `Cc1ccn2c(NC3CCCCC3)c(-c3ccccc3Cl)nc2c1`, the permeability entry in data set [5] is on record as “permeable”.

Turning to `Cc1cccc2nc(-c3ccccc3Cl)c(NC3CCCCC3)n12`, the IC50 in data set [1] was 1.55 µM; in data set [2], 0.19 µM. The half-maximal cytotoxic concentration (CC50) at 48 h in data set [3] was determined as 20.5 µM. Further, the “Ratio CC50/IC50” value in data set [4] was determined as 108.

As to `Cc1ccnc2c1NC(=O)c1cccnc1N2C1CC1` [NEVIRAPINE], the IC50 in data set [2] turned out to be 0.09 µM. Also, the CC50 at 48 h in data set [3] was more than 10 µM.

For `Cc1ccc2nc(-c3ccccc3Cl)c(NC3CCCCC3)n2c1`, the 50% inhibitory concentration (IC50) in data set [1] is 5.39 µM; in data set [2], 0.64 µM. The same compound displayed a CC50 at 48 h in data set [3] of 57.4 µM. In data set [4], the “Ratio CC50/IC50” value is 90. Besides, the permeability entry in data set [5] is “permeable”.

On to `Cc1c(Br)ccc2nc(-c3ccccc3Cl)c(NC3CCCCC3)n12`, for which the figures for the half-inhibitory concentration (IC50) in data set [1] and in data set [2] were 18.9 µM and 73 µM, respectively. For the same compound, the CC50 at 48 h in data set [3] is more than 200 µM. Also, the “Ratio CC50/IC50” value in data set [4] is on record as more than 3.

`Clc1ccc2nc(-c3ccccc3Cl)c(NC3CCCCC3)n2c1`: the IC50 in data set [1] is 14.5 µM; in data set [2], 0.84 µM. This compound registered a CC50 at 48 h in data set [3] of more than 200 µM. Also, in data set [4], the “Ratio CC50/IC50” value is more than 238. Besides, the permeability entry in data set [5] was “permeable”.

For `CC(C)NCC(O)COc1cccc2[nH]ccc12` (stereo not given) [PINDOLOL], the permeability result in data set [5] is “permeable”.

For `COCCc1ccc(OCC(O)CNC(C)C)cc1` (stereo not given) [METOPROLOL], the permeability entry in data set [5] was “permeable”.

Consider `Fc1ccc2nc(-c3ccccc3Cl)c(NC3CCCCC3)n2c1`, for which the IC50 in data set [1] was determined as 11.3 µM; in data set [2] it was 1.88 µM. Besides, in data set [3], the cytotoxic concentration (CC50) at 48 h turned out to be 160 µM. Moreover, in data set [4], the “Ratio CC50/IC50” value is listed as 85.

For `N#Cc1cccc2nc(-c3ccccc3Cl)c(NC3CCCCC3)n12`, the IC50 in data set [1] came out at 3.47 µM; in data set [2], 0.18 µM. Also, the CC50 at 48 h in data set [3] was 156 µM. Further, the “Ratio CC50/IC50” value in data set [4] worked out at 868. In addition, in data set [5], the permeability result was “permeable”.

Consider `Clc1ccccc1-c1nc2ccccn2c1NC1CCCCC1`, for which the IC50 in data set [1] was found to be 4.4 µM; in data set [2], 0.41 µM. This compound yielded a CC50 at 48 h in data set [3] of 60.4 µM. Also, the “Ratio CC50/IC50” value in data set [4] is given as 147. Also, the permeability result in data set [5] is listed as “permeable”.

On to `N#Cc1ccc2nc(-c3ccccc3Cl)c(NC3CCCCC3)n2c1`, for which the IC50 is 6.6 µM in data set [1] and less than 0.63 µM in data set [2]. For the same compound, the CC50 at 48 h in data set [3] turned out to be 140 µM. The “Ratio CC50/IC50” value in data set [4] was more than 222. In addition, the permeability entry in data set [5] is “permeable”.

Consider `Clc1ccccc1-c1nc2cccc(Cl)n2c1NC1CCCCC1`, for which the IC50 was found to be 3.74 µM in data set [1] and 0.24 µM in data set [2]. Moreover, in data set [3], the CC50 at 48 h was found to be 152 µM. The “Ratio CC50/IC50” value in data set [4] amounted to 633. The permeability result in data set [5] is “permeable”.

On to `Clc1ccccc1-c1nc2ccc(Br)cn2c1NC1CCCCC1`, for which the IC50 is 12.2 µM in data set [1] and 2.19 µM in data set [2]. For the same compound, the CC50 at 48 h in data set [3] is more than 200 µM. The “Ratio CC50/IC50” value in data set [4] is more than 91.
